Measurements reported in paper PMC12250605, “Recombinant Expression and Characterization of a Novel Type I Baeyer–Villiger Monooxygenase from a Streptomyces Strain Isolated from the Rhizosphere of the Atacama Desert Lupinus oreophilus” (International Journal of Molecular Sciences, 2025).

Tested on: T1, MO-G35A
T1 construct: full-length, C-terminal His6 tag kept, codon-optimised gene; pET-28a (cytoplasmic) or pET-22b (pelB, periplasmic), E. coli NiCo21(DE3) or Shuffle T7; 73 kDa
Test: NADPH consumption at […] nm, sigmoidal fit
Format: biochemical, Streptomyces sp. G35A
Settings: Tris-HCl pH 7.5, 30 °C (methods) or 35 °C (results), allosteric sigmoidal fit

## O=C1CC2C=CCC12 (centres unmarked) [BHC, bicyclo [3.2.0] hept-2-en-6-one]
200 µM NADPH
  Km: 60 µM

## NC(=O)C1=CN([C@@H]2O[C@H](COP(=O)(O)OP(=O)(O)OC[C@H]3O[C@@H](n4cnc5c(N)ncnc54)[C@H](OP(=O)(O)O)[C@@H]3O)[C@@H](O)[C@H]2O)C=CC1 [NADPH]
5 mM BHC
  Km: 23.8 µM
